Measured values published in patent US20050019825A9, “Common ligand mimics: pseudothiohydantoins” (priority 2002, published 2005).

Biological target: dihydrodipicolinate reductase (DHPR) (Escherichia coli, UniProt P04036)
Assay: Screening of bi-ligands for DHPR (Example 25), kinetic assay at 340 nm
Format: biochemical
Details: Cibacron Blue at 2.58 μM, Example 25; read-out: inhibition of DHPR, positive control
Procedure: Screening of Biligands for Binding to Dihydrodipicolinate Reductase (DHPR)
This example describes the screening of bi-ligands having common ligand mimics for binding activity to dihydrodipicolinate reductase (DHPR).
Bi-ligands were produced by the methods of Examples 16 to 18. The bi-ligands were screened for binding to DHPR.
Stock solutions of each of the reagents were prepared in the following concentrations. Dilutions of the stock solutions were prepared prior to running the assay in the concentrations indicated below. Dilution of DHPR was prepared in 10 mM HEPES at a pH of 7.4. DHPS was not diluted and was stored in eppindorf tubes.
The L-ASA solution was prepared in the following manner. 180 μM stock solution of ASA was prepared. 100 μl of the ASA stock was mixed with 150 μl of concentrated NaHCO3 and 375 μl of […]. For use in the assay, 28.8 mM L-ASA equal 625 μl of the solution. The L-ASA stock solution was kept at a temperature of −20° C. After dilution, the pH of the 28.8 mM solution was checked and maintained between 1 and 2.
First, the DHPS reaction was monitored at 340 nm prior to and after addition of the inhibitor to detect background reaction with the inhibitor. The solution for background detection was a 945 μl solution containing 0.1 HEPES (pH 7.8), 1 mM pyruvate, 6 μM NADPH, 40 μM L-ASA, and 7 μl of 1 mg/ml DHPS at 25° C. in the volumes provided above. The sample solution was then mixed and incubated for 10 minutes. Next, 500 nM solutions of the inhibitors and enough DMSO to provide a final DMSO concentration of 5% were added. The solution was mixed and incubated for an additional 6 minutes.
In DHPR samples, 5 μl of the diluted DHPR enzyme were added. The sample was mixed for 20 seconds and then the reaction was run for 10 minutes. After a 50 second lag, the samples were read in a Cary spectrophotometer at 340 nm. Reading of the samples was continued until 300 seconds. Cuvette #1 contained the control reaction (no inhibitor), and cuvette #2 contained the positive control reaction in which Cibacron Blue at 2.58 μM was substituted for inhibitor to yield 70 to 80% inhibition. The substrate and NADPH or NAHD were kept near their Km values.

Sequence of dihydrodipicolinate reductase (DHPR) (P04036 whole entry): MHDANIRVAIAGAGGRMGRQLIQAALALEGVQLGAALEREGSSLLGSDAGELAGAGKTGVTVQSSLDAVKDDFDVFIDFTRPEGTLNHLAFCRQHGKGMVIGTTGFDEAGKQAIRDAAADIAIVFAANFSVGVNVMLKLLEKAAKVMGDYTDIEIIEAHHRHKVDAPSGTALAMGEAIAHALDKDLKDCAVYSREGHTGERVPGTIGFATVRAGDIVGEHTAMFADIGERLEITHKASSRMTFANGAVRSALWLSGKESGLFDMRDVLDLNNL

## Nc1c(S(=O)(=O)O)cc(Nc2ccc(Nc3nc(Cl)nc(Nc4ccccc4S(=O)(=O)O)n3)c(S(=O)(=O)O)c2)c2c1C(=O)c1ccccc1C2=O [Cibacron Blue, reference compound]
  inhibition at 2.58 µM: 70 to 80%
